Source: the kinase profiling compilation of Christmann-Franck et al. (2016)

Tests used:
Assay in all cases: KINOMEscan competition binding
Conditions in all cases: compound 10.0 µM
BMPR1A (human) = BMPR1A (human) (UniProt P36894)
SYK (human) = SYK (human) (UniProt P43405)
MAP2K3 (human) = MAP2K3 (human) (UniProt P46734)
PTK6 (human) = PTK6 (human) (UniProt Q13882)
MST4 (human) = MST4 (human) (UniProt Q9P289)
CDC42BPB (human) = CDC42BPB (human) (UniProt Q9Y5S2)
CDK15 (human) = CDK15 (human) (UniProt Q96Q40)
PIK3CB (human) = PIK3CB (human) (UniProt P42338)
TTK (human) = TTK (human) (UniProt P33981)
CSNK1E (human) = CSNK1E (human) (UniProt P49674)
FGFR2 (human) = FGFR2 (human) (UniProt P21802)
PIM1 (human) = PIM1 (human) (UniProt P11309)
PDGFRB (human) = PDGFRB (human) (UniProt P09619)
[1] = test system: FGFR3 (human), P22607 [G697C]
CSNK1D (human) = CSNK1D (human) (UniProt P48730)
RIPK4 (human) = RIPK4 (human) (UniProt P57078)
PRKCD (human) = PRKCD (human) (UniProt Q05655)
CSNK1G1 (human) = CSNK1G1 (human) (UniProt Q9HCP0)
CSNK1G3 (human) = CSNK1G3 (human) (UniProt Q9Y6M4)
PAK7 (human) = PAK7 (human) (UniProt Q9P286)
FES (human) = FES (human) (UniProt P07332)
RPS6KA3 KD1 (human) = RPS6KA3 KD1 (human) (UniProt P51812)
IRAK3 (human) = IRAK3 (human) (UniProt Q9Y616)
MELK (human) = MELK (human) (UniProt Q14680)
TNK1 (human) = TNK1 (human) (UniProt Q13470)
MKNK2 (human) = MKNK2 (human) (UniProt Q9HBH9)
ACVR2B (human) = ACVR2B (human) (UniProt Q13705)
CDK8 (human) = CDK8 (human) (UniProt P49336)
PRKACB (human) = PRKACB (human) (UniProt P22694)
RIOK2 (human) = RIOK2 (human) (UniProt Q9BVS4)
DAPK2 (human) = DAPK2 (human) (UniProt Q9UIK4)
CDC2L2 (human) = CDC2L2 (human) (UniProt Q9UQ88)
FLT3 (human) = FLT3 (human) (UniProt P36888)
[2] = target: JAK1 JH2 pseudokinase (human) (UniProt P23458)
Chain of JAK1 JH2 pseudokinase (human) (P23458 whole entry, looked up): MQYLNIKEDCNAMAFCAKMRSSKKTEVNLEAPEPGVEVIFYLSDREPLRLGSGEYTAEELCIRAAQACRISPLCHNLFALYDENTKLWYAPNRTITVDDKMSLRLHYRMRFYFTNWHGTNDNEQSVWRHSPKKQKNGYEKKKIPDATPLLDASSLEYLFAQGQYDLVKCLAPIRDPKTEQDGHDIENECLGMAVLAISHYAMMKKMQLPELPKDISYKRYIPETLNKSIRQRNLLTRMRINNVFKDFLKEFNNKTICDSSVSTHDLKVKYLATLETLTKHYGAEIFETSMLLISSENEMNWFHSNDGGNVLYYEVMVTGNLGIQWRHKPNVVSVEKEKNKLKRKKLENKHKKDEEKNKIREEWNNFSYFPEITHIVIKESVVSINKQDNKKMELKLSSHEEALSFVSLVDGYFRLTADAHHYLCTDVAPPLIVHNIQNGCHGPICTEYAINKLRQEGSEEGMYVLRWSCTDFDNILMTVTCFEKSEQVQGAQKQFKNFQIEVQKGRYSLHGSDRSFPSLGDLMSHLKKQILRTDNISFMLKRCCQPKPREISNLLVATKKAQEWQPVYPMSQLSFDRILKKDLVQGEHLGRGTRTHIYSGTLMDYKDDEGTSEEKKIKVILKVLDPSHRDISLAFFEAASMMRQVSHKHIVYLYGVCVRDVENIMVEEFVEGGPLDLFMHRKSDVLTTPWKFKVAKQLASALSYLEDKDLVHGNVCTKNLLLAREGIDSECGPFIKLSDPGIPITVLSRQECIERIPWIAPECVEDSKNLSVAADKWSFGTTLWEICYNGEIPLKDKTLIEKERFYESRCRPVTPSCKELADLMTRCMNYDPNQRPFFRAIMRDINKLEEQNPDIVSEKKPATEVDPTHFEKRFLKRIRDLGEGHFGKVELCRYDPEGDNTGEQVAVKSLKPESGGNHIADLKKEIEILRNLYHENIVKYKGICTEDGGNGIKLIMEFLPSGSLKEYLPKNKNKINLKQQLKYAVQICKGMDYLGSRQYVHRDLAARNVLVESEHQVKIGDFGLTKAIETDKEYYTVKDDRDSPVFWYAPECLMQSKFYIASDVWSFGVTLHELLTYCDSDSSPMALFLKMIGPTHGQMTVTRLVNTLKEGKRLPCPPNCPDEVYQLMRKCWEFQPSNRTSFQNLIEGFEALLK

Chain of CSNK1D (human) (P48730 whole entry, looked up): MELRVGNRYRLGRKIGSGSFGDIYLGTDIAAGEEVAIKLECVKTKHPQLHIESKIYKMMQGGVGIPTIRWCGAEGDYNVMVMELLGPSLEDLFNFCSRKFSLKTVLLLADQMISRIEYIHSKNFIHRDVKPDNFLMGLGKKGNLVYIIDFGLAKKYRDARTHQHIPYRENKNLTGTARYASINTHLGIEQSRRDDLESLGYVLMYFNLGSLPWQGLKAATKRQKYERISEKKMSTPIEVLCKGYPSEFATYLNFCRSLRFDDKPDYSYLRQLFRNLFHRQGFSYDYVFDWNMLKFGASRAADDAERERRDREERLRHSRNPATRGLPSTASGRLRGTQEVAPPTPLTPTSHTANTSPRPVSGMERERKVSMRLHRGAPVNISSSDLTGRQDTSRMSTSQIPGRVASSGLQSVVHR
Chain of CSNK1G1 (human) (Q9HCP0 whole entry, looked up): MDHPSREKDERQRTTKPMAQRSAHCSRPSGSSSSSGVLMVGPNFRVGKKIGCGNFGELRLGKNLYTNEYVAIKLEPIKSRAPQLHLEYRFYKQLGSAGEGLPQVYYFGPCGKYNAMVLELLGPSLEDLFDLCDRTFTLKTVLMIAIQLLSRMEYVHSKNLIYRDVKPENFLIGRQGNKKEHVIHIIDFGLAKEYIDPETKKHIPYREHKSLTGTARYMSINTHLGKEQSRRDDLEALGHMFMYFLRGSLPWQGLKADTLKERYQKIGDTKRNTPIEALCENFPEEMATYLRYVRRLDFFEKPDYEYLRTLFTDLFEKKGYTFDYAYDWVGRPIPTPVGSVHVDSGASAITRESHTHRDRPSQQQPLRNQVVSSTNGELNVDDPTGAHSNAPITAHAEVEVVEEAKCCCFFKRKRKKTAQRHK
Chain of MKNK2 (human) (Q9HBH9 whole entry, looked up): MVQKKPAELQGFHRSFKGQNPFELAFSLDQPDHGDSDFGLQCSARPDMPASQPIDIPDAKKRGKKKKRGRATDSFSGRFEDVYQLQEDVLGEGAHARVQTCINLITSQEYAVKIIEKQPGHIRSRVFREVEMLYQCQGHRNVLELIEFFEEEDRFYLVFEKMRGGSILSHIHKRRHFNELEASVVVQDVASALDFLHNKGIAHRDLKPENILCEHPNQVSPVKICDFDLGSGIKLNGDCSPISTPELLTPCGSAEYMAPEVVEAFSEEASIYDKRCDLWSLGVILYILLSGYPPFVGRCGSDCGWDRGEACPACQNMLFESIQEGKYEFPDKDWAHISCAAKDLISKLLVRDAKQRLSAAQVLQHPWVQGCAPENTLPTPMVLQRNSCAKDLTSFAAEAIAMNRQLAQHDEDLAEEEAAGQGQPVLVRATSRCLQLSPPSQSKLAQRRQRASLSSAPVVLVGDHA
Chain of FGFR3 (human), P22607 [G697C] (P22607 whole entry G697C, looked up): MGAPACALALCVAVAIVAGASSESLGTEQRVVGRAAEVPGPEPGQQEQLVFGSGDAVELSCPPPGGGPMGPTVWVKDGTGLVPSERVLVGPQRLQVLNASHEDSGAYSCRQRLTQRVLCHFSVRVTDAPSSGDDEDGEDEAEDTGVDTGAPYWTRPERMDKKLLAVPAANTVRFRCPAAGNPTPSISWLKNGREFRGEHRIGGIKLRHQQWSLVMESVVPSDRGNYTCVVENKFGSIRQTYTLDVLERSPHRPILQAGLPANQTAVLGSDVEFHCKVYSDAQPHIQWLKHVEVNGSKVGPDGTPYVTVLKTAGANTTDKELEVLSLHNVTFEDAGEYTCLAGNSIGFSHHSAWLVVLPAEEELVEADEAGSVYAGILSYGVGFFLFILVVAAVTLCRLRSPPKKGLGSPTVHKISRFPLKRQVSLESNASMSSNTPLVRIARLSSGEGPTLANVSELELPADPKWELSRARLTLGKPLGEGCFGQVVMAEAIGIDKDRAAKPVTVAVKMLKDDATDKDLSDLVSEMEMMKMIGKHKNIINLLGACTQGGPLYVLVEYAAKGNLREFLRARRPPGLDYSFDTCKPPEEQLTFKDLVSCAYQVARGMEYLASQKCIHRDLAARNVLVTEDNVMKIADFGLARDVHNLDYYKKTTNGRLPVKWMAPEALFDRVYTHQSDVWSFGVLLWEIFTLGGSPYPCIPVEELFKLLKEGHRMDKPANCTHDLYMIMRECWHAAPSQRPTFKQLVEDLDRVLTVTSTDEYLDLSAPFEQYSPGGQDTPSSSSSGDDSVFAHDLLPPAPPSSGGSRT
Chain of FES (human) (P07332 whole entry, looked up): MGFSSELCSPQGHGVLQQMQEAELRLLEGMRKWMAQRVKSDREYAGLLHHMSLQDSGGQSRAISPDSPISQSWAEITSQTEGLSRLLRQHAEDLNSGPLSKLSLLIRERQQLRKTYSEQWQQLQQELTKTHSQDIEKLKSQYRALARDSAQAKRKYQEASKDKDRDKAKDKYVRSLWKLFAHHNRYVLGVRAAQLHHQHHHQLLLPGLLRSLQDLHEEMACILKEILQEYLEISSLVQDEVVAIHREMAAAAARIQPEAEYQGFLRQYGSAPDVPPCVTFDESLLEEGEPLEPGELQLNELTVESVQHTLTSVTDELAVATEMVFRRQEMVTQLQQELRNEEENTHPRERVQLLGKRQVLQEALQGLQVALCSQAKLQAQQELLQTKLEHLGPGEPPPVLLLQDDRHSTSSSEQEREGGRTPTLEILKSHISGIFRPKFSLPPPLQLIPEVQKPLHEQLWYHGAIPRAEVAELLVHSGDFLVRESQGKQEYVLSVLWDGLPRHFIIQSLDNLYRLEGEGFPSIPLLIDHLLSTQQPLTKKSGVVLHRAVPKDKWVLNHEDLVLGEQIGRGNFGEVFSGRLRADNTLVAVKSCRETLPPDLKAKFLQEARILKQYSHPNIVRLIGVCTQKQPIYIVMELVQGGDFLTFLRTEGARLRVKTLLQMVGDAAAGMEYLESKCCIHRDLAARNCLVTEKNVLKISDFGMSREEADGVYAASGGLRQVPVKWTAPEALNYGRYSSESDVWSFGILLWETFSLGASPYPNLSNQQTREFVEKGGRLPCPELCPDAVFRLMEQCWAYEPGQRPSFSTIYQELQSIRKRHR
Chain of IRAK3 (human) (Q9Y616 whole entry, looked up): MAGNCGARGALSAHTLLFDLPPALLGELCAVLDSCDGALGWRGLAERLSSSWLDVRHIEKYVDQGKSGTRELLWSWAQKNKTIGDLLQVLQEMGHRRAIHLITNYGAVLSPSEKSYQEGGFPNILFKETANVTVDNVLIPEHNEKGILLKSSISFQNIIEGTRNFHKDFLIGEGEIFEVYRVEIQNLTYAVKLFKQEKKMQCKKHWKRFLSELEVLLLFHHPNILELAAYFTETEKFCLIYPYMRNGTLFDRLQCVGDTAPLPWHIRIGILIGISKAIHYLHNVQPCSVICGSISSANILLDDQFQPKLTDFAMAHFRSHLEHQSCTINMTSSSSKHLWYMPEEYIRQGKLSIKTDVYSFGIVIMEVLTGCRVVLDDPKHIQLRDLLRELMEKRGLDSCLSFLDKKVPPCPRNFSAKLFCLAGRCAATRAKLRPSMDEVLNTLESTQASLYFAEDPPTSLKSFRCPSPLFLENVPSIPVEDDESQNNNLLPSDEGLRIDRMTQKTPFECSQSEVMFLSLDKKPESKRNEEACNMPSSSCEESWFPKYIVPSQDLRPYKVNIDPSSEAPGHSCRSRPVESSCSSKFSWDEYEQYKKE
Chain of DAPK2 (human) (Q9UIK4 whole entry, looked up): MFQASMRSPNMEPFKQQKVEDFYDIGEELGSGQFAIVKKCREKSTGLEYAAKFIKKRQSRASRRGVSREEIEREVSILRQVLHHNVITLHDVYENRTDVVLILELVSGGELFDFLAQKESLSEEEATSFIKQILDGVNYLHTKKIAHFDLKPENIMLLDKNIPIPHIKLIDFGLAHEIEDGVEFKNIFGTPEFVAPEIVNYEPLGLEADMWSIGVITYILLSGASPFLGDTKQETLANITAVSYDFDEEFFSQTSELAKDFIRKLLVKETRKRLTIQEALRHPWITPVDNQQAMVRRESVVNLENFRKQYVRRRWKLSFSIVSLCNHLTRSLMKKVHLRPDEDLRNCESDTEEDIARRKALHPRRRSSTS

COc1cc(C)c(Sc2cnc(NC(=O)c3ccc(CNC(C)C(C)C)cc3)s2)cc1C(=O)N1CCN(C(C)=O)CC1 (configuration not stated)
kinase still bound, per cent of control (BMPR1A (human)): 100% | kinase still bound, per cent of control (SYK (human)): 100% | kinase still bound, per cent of control (MAP2K3 (human)): 100% | kinase still bound, per cent of control (PTK6 (human)): 100% | kinase still bound, per cent of control (MST4 (human)): 100% | kinase still bound, per cent of control (CDC42BPB (human)): 100% | kinase still bound, per cent of control (CDK15 (human)): 100% | kinase still bound, per cent of control (PIK3CB (human)): 100% | kinase still bound, per cent of control (TTK (human)): 100% | kinase still bound, per cent of control (CSNK1E (human)): 100% | kinase still bound, per cent of control (FGFR2 (human)): 100% | kinase still bound, per cent of control (PIM1 (human)): 100% | kinase still bound, per cent of control (PDGFRB (human)): 100% | kinase still bound, per cent of control [1]: 100% | kinase still bound, per cent of control (CSNK1D (human)): 100% | kinase still bound, per cent of control (RIPK4 (human)): 100% | kinase still bound, per cent of control (PRKCD (human)): 100% | kinase still bound, per cent of control (CSNK1G1 (human)): 100% | kinase still bound, per cent of control (CSNK1G3 (human)): 100% | kinase still bound, per cent of control (PAK7 (human)): 100% | kinase still bound, per cent of control (FES (human)): 100% | kinase still bound, per cent of control (RPS6KA3 KD1 (human)): 100% | kinase still bound, per cent of control (IRAK3 (human)): 100% | kinase still bound, per cent of control (MELK (human)): 100% | kinase still bound, per cent of control (TNK1 (human)): 100% | kinase still bound, per cent of control (MKNK2 (human)): 100% | kinase still bound, per cent of control (ACVR2B (human)): 100% | kinase still bound, per cent of control (CDK8 (human)): 100% | kinase still bound, per cent of control (PRKACB (human)): 100% | kinase still bound, per cent of control (RIOK2 (human)): 100% | kinase still bound, per cent of control (DAPK2 (human)): 28% | kinase still bound, per cent of control (CDC2L2 (human)): 100% | kinase still bound, per cent of control (FLT3 (human)): 100% | kinase still bound, per cent of control [2]: 100%

COc1cc(N2CCC(C(N)=O)CC2)ccc1Nc1nc(N)c(Cl)c(Nc2ccccc2S(=O)(=O)C(C)C)n1
kinase still bound, per cent of control (BMPR1A (human)): 100% | kinase still bound, per cent of control (SYK (human)): 100% | kinase still bound, per cent of control (MAP2K3 (human)): 23% | kinase still bound, per cent of control (PTK6 (human)): 3% | kinase still bound, per cent of control (MST4 (human)): 100% | kinase still bound, per cent of control (CDC42BPB (human)): 100% | kinase still bound, per cent of control (CDK15 (human)): 100% | kinase still bound, per cent of control (PIK3CB (human)): 100% | kinase still bound, per cent of control (TTK (human)): 7% | kinase still bound, per cent of control (CSNK1E (human)): 34% | kinase still bound, per cent of control (FGFR2 (human)): 100% | kinase still bound, per cent of control (PIM1 (human)): 100% | kinase still bound, per cent of control (PDGFRB (human)): 100% | kinase still bound, per cent of control [1]: 100% | kinase still bound, per cent of control (CSNK1D (human)): 100% | kinase still bound, per cent of control (RIPK4 (human)): 100% | kinase still bound, per cent of control (PRKCD (human)): 100% | kinase still bound, per cent of control (CSNK1G1 (human)): 100% | kinase still bound, per cent of control (CSNK1G3 (human)): 100% | kinase still bound, per cent of control (PAK7 (human)): 100% | kinase still bound, per cent of control (FES (human)): 2.3% | kinase still bound, per cent of control (RPS6KA3 KD1 (human)): 100% | kinase still bound, per cent of control (IRAK3 (human)): 29% | kinase still bound, per cent of control (MELK (human)): 100% | kinase still bound, per cent of control (TNK1 (human)): 3.8% | kinase still bound, per cent of control (MKNK2 (human)): 14% | kinase still bound, per cent of control (ACVR2B (human)): 100% | kinase still bound, per cent of control (CDK8 (human)): 100% | kinase still bound, per cent of control (PRKACB (human)): 100% | kinase still bound, per cent of control (RIOK2 (human)): 100% | kinase still bound, per cent of control (DAPK2 (human)): 100% | kinase still bound, per cent of control (CDC2L2 (human)): 100% | kinase still bound, per cent of control (FLT3 (human)): 100% | kinase still bound, per cent of control [2]: 100%

COc1ccc(N(C(=O)Oc2cc(C(=O)Nc3cccc(C(F)(F)F)c3)ccc2C)c2ccnc(Nc3ccc(N4CCN(C)CC4)cc3)n2)c(OC)c1
kinase still bound, per cent of control (SYK (human)): 4% | kinase still bound, per cent of control (MAP2K3 (human)): 100% | kinase still bound, per cent of control (PTK6 (human)): 4% | kinase still bound, per cent of control (MST4 (human)): 100% | kinase still bound, per cent of control (CDC42BPB (human)): 100% | kinase still bound, per cent of control (TTK (human)): 100% | kinase still bound, per cent of control (CSNK1E (human)): 100% | kinase still bound, per cent of control (FGFR2 (human)): 3.4% | kinase still bound, per cent of control (PIM1 (human)): 100% | kinase still bound, per cent of control (PDGFRB (human)): 0.45% | kinase still bound, per cent of control [1]: 8.6% | kinase still bound, per cent of control (CSNK1D (human)): 100% | kinase still bound, per cent of control (PRKCD (human)): 100% | kinase still bound, per cent of control (CSNK1G1 (human)): 100% | kinase still bound, per cent of control (CSNK1G3 (human)): 100% | kinase still bound, per cent of control (PAK7 (human)): 100% | kinase still bound, per cent of control (FES (human)): 0.85% | kinase still bound, per cent of control (RPS6KA3 KD1 (human)): 100% | kinase still bound, per cent of control (IRAK3 (human)): 100% | kinase still bound, per cent of control (MELK (human)): 100% | kinase still bound, per cent of control (TNK1 (human)): 1.6% | kinase still bound, per cent of control (MKNK2 (human)): 100% | kinase still bound, per cent of control (ACVR2B (human)): 100% | kinase still bound, per cent of control (CDK8 (human)): 100% | kinase still bound, per cent of control (PRKACB (human)): 27% | kinase still bound, per cent of control (DAPK2 (human)): 100% | kinase still bound, per cent of control (CDC2L2 (human)): 8% | kinase still bound, per cent of control (FLT3 (human)): 100% | kinase still bound, per cent of control [2]: 100%
